The values below are quoted from earlier work in patent publication US20070160647A1, “Materials for medical implants and occlusive devices” (Clarity Corporation, priority 2004, published 2007).

With `Oc1cc(Cl)ccc1Oc1ccc(Cl)cc1Cl` [triclosan], the “solubility in DMSO and alcohols” value is reported as “highly soluble”; the solubility in water result was “insoluble”.
